In patent US20230105212A1, “BIPHENYL DERIVATIVE INHIBITOR, PREPARATION METHOD THEREFOR AND USE THEREOF” (SHANGHAI HANSOH BIOMEDICAL CO., LTD., priority 2020, published 2023):

Legend:
[1] = test system: CHO-PDL1/Jurkat-PD1 cell pathway; assay: Inhibition of CHO-PDL1/Jurkat-PD1 cell pathway (NFAT luciferase reporter); type: cell-based; conditions: for EC50: 6 hours incubation, luciferase signal; for maximal fold induction: relative to the signal value of the non-dosed group, read-out: Maximum induction fold
Description: Test Embodiment 3. Inhibitory Effect of the Compounds of the Present Disclosure on CHO-PDL1/Jurkat-PD1 Cell Pathway
Experimental purpose: The purpose of this test embodiment was to test the inhibitory effect of compounds on the CHO-PDL1/Jurkat-PD1 cell pathway.
Experimental method: Two stably transfected cell lines were included in this experiment, CHO-K1 cells stably transfected with PD-L1 and Jurkat cells stably transfected with PD-1 and NFAT luciferase reporter genes. Compounds were incubated with the two cell lines. Then, due to the inhibitory effect on the PD-1/PD-L1 pathway, the activation degree of Jurkat cells changed, so that the level of the reporter gene NFAT in the downstream of Jurkat cells changed, and the level of NFAT was characterized by detecting the signal value of luciferase, so that the inhibitory effect of the test compound on CHO-PDL1/Jurkat-PD1 pathway was characterized.
CHO-PDL1 cells (Promega, #J1252) were cultured to a suitable cell density. After digestion, the cells were resuspended by complete medium to become a suitable density of cell suspension. The cell suspension was plated 100 μL per well on a 96-well plate (Corning, #3610), and placed in a 37° C., 5% CO2 incubator and incubated overnight, and assay medium (RPMI 1640+2% FBS, RPMI 1640 Cat. No.: Gibco, #22400089, FBS Cat. No.: Gibco, #10091148) was used to prepare compound solutions of different concentrations. NFAT-luc2/PD1 Jurkat cells (Promega, #J1252) were collected and resuspended to the appropriate cell density using assay medium. The supernatant of the CHO-PDL1 cell culture plate was aspirated, and 40 μL of the prepared compound solution and 40 μL of resuspended NFAT-luc2/PD1 Jurkat cells were added, and incubated in a 5% CO2 incubator at 37° C. for 6 hours, and the cell plate was taken out, then 40 μL of One-Glo reagent (Promega, #E6120) was added to each well, shaked and mixed well, incubated in the dark at room temperature for 10 minutes, then put into a microplate reader and the luminescence program was used to read the luminescence value of the cell plate.
The EC50 value was fitted according to the compound concentration and the luminescence signal value, and the maximum induction fold of each compound relative to the signal value of the non-dosed group was calculated, as shown in Table 3.

[2] = biological target: T1, PD-L1 protein on the surface of MC38-hPDL1 tumor cells (Homo sapiens, UniProt Q9NZQ7); assay: Induction of endocytosis of PD-L1 on the surface of tumor cells (flow cytometry); type: cell-based; conditions: 16 hours incubation; for Emax: MC38-hPDL1 cells, read-out: MC38 maximum endocytosis rate
T1 construct: expressed in transfected cells; host or cells: MC38-hPDL1 (mouse colon cancer cells)
Procedure, shortened: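 IC50 comes from nonlinear fits of endocytosis rate, calculated from the loss of surface PE-anti-CD274 flow signal relative to vehicle. Cells were MC38 mouse colon cancer cells engineered to express high human PD-L1. Compound exposure lasted 16 h at 37 °C, 5% CO2.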

[3] = biological target: T2, human PD-L1 protein (Homo sapiens, UniProt Q9NZQ7); assay: Thermal shift: melting temperature of PD-L1 protein; type: binding; conditions: compound 10 μM, PD-L1 protein 2 μM, Tm minus DMSO vehicle control; read-out: ΔTm (° C.)
T2 construct: purchased Acro Biosystems PD1-H5229
Procedure, shortened: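 Human PD-L1 at 2 μM final was tested in […], 150 mM NaCl with SYPRO Orange, heated 25→95 °C at 0.03 °C/s in a PCR melt-curve run. Tm was taken per treatment; ΔTm is the shift relative to DMSO vehicle.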

[4] = biological target: T3, human PD-1/PD-L1 binding (Homo sapiens, UniProt Q9NZQ7); assay: Inhibition of human PD-1/PD-L1 binding (TR-FRET/HTRF); conditions: TR-FRET, PD-L1-His and PD-1-Fc; read-out: PD-1/PD-L1 binding IC50
T3 construct: PD-L1-His protein (19 to 238 amino acids) (Abcam #ab167713); purchased Abcam (PD-L1-His); R&D (PD-1-Fc) ab167713; 1086-PD
Procedure, shortened: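 PD-L1-His (aa 19–238, diluted to 10 nM) and PD-1-Fc (aa 25–167, diluted to 20 nM) incubated with compounds (10 μM or 1 μM top, 3-fold, 11 doses) 60 min at room temperature, then anti-6HIS Eu cryptate/anti-human IgG-XL665 added for 3 h RT or overnight 4 °C. HTRF 665/620 nm ratio gave inhibition and IC50.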

T2 sequence (Q9NZQ7 19-238 limits assumed): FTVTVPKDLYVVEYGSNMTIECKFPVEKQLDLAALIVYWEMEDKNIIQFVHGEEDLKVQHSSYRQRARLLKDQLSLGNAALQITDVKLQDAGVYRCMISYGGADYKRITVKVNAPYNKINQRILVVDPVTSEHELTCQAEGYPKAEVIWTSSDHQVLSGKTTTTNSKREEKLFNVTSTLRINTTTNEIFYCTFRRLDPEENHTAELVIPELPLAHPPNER
T3 sequence (Q9NZQ7 19-238): as the sequence (Q9NZQ7 19-238 limits assumed) above
T1 sequence (Q9NZQ7 19-290): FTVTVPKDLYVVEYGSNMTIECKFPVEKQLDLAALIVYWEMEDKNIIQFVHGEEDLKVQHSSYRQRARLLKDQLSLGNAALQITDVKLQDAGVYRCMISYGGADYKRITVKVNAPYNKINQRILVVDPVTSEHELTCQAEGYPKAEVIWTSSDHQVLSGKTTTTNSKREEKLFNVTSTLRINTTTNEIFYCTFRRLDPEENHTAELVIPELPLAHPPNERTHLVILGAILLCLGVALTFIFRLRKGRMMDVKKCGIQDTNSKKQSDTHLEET

Row | Compound | EC50 [1] [nM] | maximal fold induction [1] | Emax [2] [%] | ΔTm at 10 µM [3] [°C] | IC50 [4] [nM] | IC50 ([2]; inducing endocytosis of PD-L1, MC38-hPDL1 cells, read-out: MC38 IC50) [nM]
1 | COc1nc(-c2cccc(-c3cccc(NC(=O)c4nc5c(n4C)CCN(C)C5)c3Cl)c2Cl)ccc1CN1CC2(CCN(C(C)=O)C2)C1 [Embodiment 195, N-(3′-(5-((6-Acetyl-2,6-diazaspiro[3.4]octan-2-yl)methyl)-6-methoxypyridin-2-yl)-2,2′-dichloro-[1,1′-biphenyl]-3-yl)-1,5-dimethyl-4,5,6,7-tetrahydro-1H-imidazo[4,5-c]pyridine-2-carboxamide] | 89 | 3.6 | 96 | 14.5 | 3.6 | –
2 | COc1nc(-c2cccc(-c3cccc(NC(=O)c4nc5c(n4C)CCN(C)C5)c3Cl)c2Cl)ccc1CN1CCC2(CC1)CN(C(C)=O)C2 [Embodiment 197, N-(3′-(5-((2-Acetyl-2,7-diazaspiro[3.5]nonan-7-yl)methyl)-6-methoxypyridin-2-yl)-2,2′-dichloro-[1,1′-biphenyl]-3-yl)-1,5-dimethyl-4,5,6,7-tetrahydro-1H-imidazo[4,5-c]pyridine-2-carboxamide] | 67 | 3.5 | 93 | 16 | 4.3 | –
3 | CNC(=O)C1CN(Cc2ccc(-c3cccc(-c4cccc(NC(=O)c5nc6c(n5C)CCN(C)C6)c4Cl)c3Cl)nc2OC)C1 [Embodiment 184, N-(2,2′-Dichloro-3′-(6-methoxy-5-((3-(methylcarbamoyl)azetidin-1-yl)methyl)pyridin-2-yl)-[1,1′-biphenyl]-3-yl)-1,5-dimethyl-4,5,6,7-tetrahydro-1H-imidazo[4,5-c]pyridine-2-carboxamide] | 62 | 2.8 | 96 | 16.7 | 7 | –
4 | COc1nc(-c2cccc(-c3cccc(NC(=O)c4nc5c(n4C)CCN(C)C5)c3Cl)c2Cl)ccc1CN1CC2(CN(C=O)C2)C1 [Embodiment 193, N-(2,2′-Dichloro-3′-(5-((6-formyl-2,6-diazaspiro[3.3]heptan-2-yl)methyl)-6-methoxypyridin-2-yl)-[1,1′-biphenyl]-3-yl)-1,5-dimethyl-4,5,6,7-tetrahydro-1H-imidazo[4,5-c]pyridine-2-carboxamide] | 84 | 2.8 | 96 | 12.3 | 6.4 | –
5 | COc1nc(-c2cccc(-c3cccc(NC(=O)c4nc5c(n4C)CCN(C)C5)c3Cl)c2Cl)ccc1CN1CC(CNC(C)=O)C1 [Embodiment 181, N-(3′-(5-((3-(Acetylaminomethyl)azetidin-1-yl)methyl)-6-methoxypyridin-2-yl)-2,2′-dichloro-[1,1′-biphenyl]-3-yl)-1,5-dimethyl-4,5,6,7-tetrahydro-1H-imidazo[4,5-c]pyridine-2-carboxamide] | 59 | – | 97 | 15 | 3.4 | –
6 | COc1cc(C(=O)Nc2cccc(-c3cccc(NC(=O)c4nc5c(n4C)CCN(C)C5)c3Cl)c2C)ncc1CNC1COC1 [Embodiment 36, N-(2-Chloro-3′-(4-methoxy-5-((oxetan-3-ylamino)methyl)picolinamido)-2′-methyl-[1,1′-biphenyl]-3-yl)-1,5-dimethyl-4,5,6,7-tetrahydro-1H-imidazo[4,5-c]pyridine-2-carboxamide] | 93 | 3.1 | 94 | – | 5 | 3.1
